Test results from patent publication US20260091008A1, “DOUBLE TARGETED CONSTRUCTS TO AFFECT TUMOR KILL” (Cornell University, priority 2016, published 2026).
Several values for one entry are separate records, joined by “and”; a condition that tells them apart may be missing. Identical values can stand only once. Values belong to the compound of their own block, whether it stands above or below them.

Experiments:
HSA = HSA (Homo sapiens, UniProt P02768); experiment: HSA affinity determination on immobilized-HSA microcolumns; type: binding; conditions: HSA microcolumn, phosphate buffer pH 7.4, room temperature
Source text: HSA affinity determination. HSA was immobilized to HPLC-grade silica by the Schiff base method as described previously and were packed into 10 mm×2.1 mm i.d. microcolumns. See Chen J, Hage D S. Quantitative studies of allosteric effects by biointeraction chromatography: analysis of protein binding for low-solubility drugs. Anal Chem. 2006:78:2672-2683 and Matsuda R, Anguizola J, Hoy K S, Hage D S. Analysis of drug-protein interactions by high-performance affinity chromatography: interactions of sulfonyl urea drugs with normal and glycated human serum albumin. Methods Mol Biol. 2015; 1286:255-277, each of which is incorporated herein by reference. The protein content of these columns was approximately 60 mg HSA per gram of silica. See Zheng X, Podariu M, Bi C, Hage D S. Development of enhanced capacity affinity microcolumn by using a hybrid of protein cross-linking/modification and immobilization. J. Chromatogr A. 2015; 1400:82-90, incorporated herein by reference. Control microcolumns were prepared in the same manner but with no HSA being added during the immobilization step. The retention factor for each compound was measured on both an HSA microcolumn and a control column by injecting 5 μL samples that contained approximately 50 μM of the compound in 0.067M potassium phosphate buffer (pH 7.4). All samples were injected in triplicate at room temperature and at 1.0 mL/min, with the phosphate buffer used as the mobile phase. Similar injections were made with samples containing sodium nitrate, which was used as a void volume marker. Elution of the injected compounds was monitored by absorbance detection. The dissociation constant (Kd) for each compound with HSA estimated by using the measured retention factors, after correcting for any observed retention on the control column, along with the estimated content of active HSA in the column, as based on injections made with warfarin and L-tryptophan (i.e., probes for Sudlow sites I and II of HSA). See Chen J, Hage D S. Anal Chem. 2006:78:2672-2683 (cited above) and Joseph K S, Hage D S. The effects of glycation on the binding of human serum albumin to warfarin and L-tryptophan. J Pharm Biomed Anal. 2010; 53:811-818, incorporated herein by reference.

LNCaP cell xenografts = experiment: Tissue distribution of 131I-labeled compounds in mice bearing LNCaP xenografts; conditions: male, NCr-nu/nu, mouse, in vivo
Procedure: Inoculation of mice with xenografts. All animal studies were approved by the Institutional Animal Care and Use Committee of Weill Cornell Medicine and were undertaken in accordance with the guidelines set forth by the USPHS Policy on Humane Care and Use of Laboratory Animals. Animals were housed under standard conditions in approved facilities with 12 h light/dark cycles. Food and water was provided ad libitum throughout the course of the studies. Male inbred athymic nu/nu mice were purchased from The Jackson Laboratory. For inoculation in mice, LNCaP cells were suspended at 4×10^7 cells/mL in a 1:1 mixture of PBS:Matrigel (BD Biosciences). Each mouse was injected in the left flank with 0.25 mL of the cell suspension. The mice were imaged when the tumors reached approximately 200-400 mm^3, while biodistributions were conducted when tumors were in the range 100-400 mm^3.
Tissue Distribution Studies. A quantitative analysis of the tissue distribution of ^131I-labeled compounds was performed in separate groups of male NCr-nu/nu mice bearing LNCaP cell xenografts administered via the tail vein as a bolus injection (approximately 370 kBq (10 μCi)/mouse) in a volume of 0.05-0.1 mL of saline solution containing 2.5% v/v DMSO. The animals (n=3-5/time point) were euthanized by asphyxiation with CO2 at the indicated time points after injection. Tissues, including blood, heart, lungs, liver, spleen, pancreas, kidneys, stomach, large and small intestines (with contents), skeletal muscle, bone, and tumor, were dissected, excised, weighed wet (Sartorius analytical balance), and counted in a Wizard automated […] (Perkin Elmer). A 1% ID/g standard was counted with the tissue samples. Tissue time-radioactivity levels expressed as percent injected dose per gram of tissue (% ID/g) were determined. Blood pharmacokinetics were modeled as a dual compartment system using bi-exponential least-squares regression fit to the data. Regression method was implemented in MATLAB R2015b (MathWorks, Natick, MA).

[1] = salivary glands, radioligand therapy; cited from earlier work
PSMA on LNCaP cells = biological target: T1, PSMA on LNCaP cells (Homo sapiens, UniProt Q04609); experiment: Multi-concentration competitive binding assay against 99mTc-MIP-1427 on LNCaP cells; conditions: non-radioactive ligands vs 1 nM 99mTc-MIP-1427, LNCaP cells, 1 h
T1 construct: host or cells: LNCaP
Procedure: Cell Culture. […] Cell culture supplies were from Invitrogen unless otherwise noted.
In vitro determination of IC50. […] Eur J Nucl Med Mol Imaging. 2017; 44, 647-661, incorporated herein by reference. […] The cells were incubated for 1 h with 1 nM ^99mTc-MIP-1427 in serum-free RPMI-1640 medium in the presence of 0.1-10,000 nM test compounds. […] Cells were harvested from the plates and transferred to tubes for radioactive counting using a Packard Cobra II Gamma Counter. IC50 values were determined by non-linear regression using GraphPad Prism software.

[2] = in vivo; cited from earlier work

HSA, sequence (P02768 25-609): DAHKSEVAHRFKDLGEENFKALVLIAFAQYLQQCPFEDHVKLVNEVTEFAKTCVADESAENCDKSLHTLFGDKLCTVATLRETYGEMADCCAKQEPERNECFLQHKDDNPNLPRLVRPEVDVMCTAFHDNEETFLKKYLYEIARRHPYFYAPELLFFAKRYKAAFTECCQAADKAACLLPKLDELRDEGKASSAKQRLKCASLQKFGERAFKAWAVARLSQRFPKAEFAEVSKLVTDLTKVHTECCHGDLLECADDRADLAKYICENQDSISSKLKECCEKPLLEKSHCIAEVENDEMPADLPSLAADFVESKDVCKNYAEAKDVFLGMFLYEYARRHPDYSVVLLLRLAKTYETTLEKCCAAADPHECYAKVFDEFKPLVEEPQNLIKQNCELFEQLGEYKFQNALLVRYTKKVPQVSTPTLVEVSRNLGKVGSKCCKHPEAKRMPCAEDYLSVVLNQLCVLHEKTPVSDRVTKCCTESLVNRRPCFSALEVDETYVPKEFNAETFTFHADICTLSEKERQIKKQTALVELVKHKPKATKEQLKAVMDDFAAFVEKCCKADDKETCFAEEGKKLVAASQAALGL
T1 sequence (Q04609 whole entry): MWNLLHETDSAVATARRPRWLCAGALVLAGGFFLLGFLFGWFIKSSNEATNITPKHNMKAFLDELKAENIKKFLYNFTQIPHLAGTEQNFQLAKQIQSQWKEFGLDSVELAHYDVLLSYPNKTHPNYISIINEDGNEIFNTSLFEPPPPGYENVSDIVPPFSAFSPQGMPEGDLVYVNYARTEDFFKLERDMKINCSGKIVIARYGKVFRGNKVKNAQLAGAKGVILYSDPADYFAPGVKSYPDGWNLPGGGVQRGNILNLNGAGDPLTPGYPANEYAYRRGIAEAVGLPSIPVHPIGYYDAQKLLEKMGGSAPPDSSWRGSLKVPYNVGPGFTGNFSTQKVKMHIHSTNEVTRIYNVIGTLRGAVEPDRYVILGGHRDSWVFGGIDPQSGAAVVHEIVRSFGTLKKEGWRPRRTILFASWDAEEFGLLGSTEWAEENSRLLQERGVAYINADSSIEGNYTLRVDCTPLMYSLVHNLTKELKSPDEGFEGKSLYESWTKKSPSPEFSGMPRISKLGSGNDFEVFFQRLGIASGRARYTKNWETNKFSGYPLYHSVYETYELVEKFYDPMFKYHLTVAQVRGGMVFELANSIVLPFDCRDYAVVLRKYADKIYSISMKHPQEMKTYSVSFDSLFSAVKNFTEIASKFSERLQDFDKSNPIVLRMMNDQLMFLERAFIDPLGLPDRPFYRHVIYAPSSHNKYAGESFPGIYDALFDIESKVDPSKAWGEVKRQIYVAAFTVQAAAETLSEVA

Compound: O=C(O)CCC(NC(=O)NC(CCCCNC(=O)CCCc1ccc([131I])cc1)C(=O)O)C(=O)O (centres unmarked) [^131I-RPS-005]
Kd (HSA): 890 nM
Blood activity (LNCaP cell xenografts; 24 h): 21.35±3.99 % ID/g
Heart uptake (LNCaP cell xenografts; 24 h): 4.40±0.74 % ID/g
Kidney uptake (LNCaP cell xenografts; 24 h): 39.09±2.96 % ID/g
Liver uptake (LNCaP cell xenografts; 24 h): 3.41±0.56 % ID/g
Lungs uptake (LNCaP cell xenografts; 24 h): 8.87±0.74 % ID/g
Tumor uptake (LNCaP cell xenografts; 24 h): 9.37±1.56 % ID/g
Blood activity (LNCaP cell xenografts; 96 h): 15.57±3.98 % ID/g
Tumor uptake (LNCaP cell xenografts; 96 h): 10.82±2.64 % ID/g

Compound: O=C([O-])CC[C@H](NC(=O)N[C@@H](CCCCNC(=O)[C@H](Cc1ccc2ccccc2c1)NC(=O)[C@H]1CC[C@H](CNC(=O)CN2CCN(CC(=O)[O-])CCN(CC(=O)[O-])CCN(CC(=O)[O-])CC2)CC1)C(=O)[O-])C(=O)[O-].[225Ac].[H+].[H+].[H+] [^225Ac-PSMA-617]
Toxicity reported in patients [1]: severe and sustained xerostomia

Compound: O=C(O)CCC(NC(=O)N[C@@H](CCCCNC(=O)Nc1ccc([131I])cc1)C(=O)O)C(=O)O (some centres unmarked) [^131I-RPS-001]
Blood t1/2 for the distribution phase (LNCaP cell xenografts): 2.17 h
Blood t1/2 for the elimination phase (LNCaP cell xenografts): 20.38 h
Initial kidney uptake (LNCaP cell xenografts): > 100 % ID/g
Time post injection at which T/K ratio reaches 3 (LNCaP cell xenografts): ~96 h
Kidney uptake (LNCaP cell xenografts; 24 h): 65.24±22.61 % ID/g
Large intestine uptake (LNCaP cell xenografts; 24 h): 2.35±1.26 % ID/g
Spleen uptake (LNCaP cell xenografts; 24 h): 2.41±1.40 % ID/g
Tumor uptake (LNCaP cell xenografts; 24 h): 19.81±6.16 % ID/g
Kidney uptake (LNCaP cell xenografts; 96 h): 2.12±2.47 % ID/g
Tumor uptake (LNCaP cell xenografts; 96 h): 10.21±4.30 % ID/g
Toxicity reported in patients [1]: dose-limiting toxicity to the salivary glands

Compound: (((S)-1-Carboxy-4-(2-(4-iodophenyl)acetamido)pentyl)carbamoyl)-L-glutamic acid [RPS-023]
IC50 (PSMA on LNCaP cells): 10 nM
Kd (HSA): 53200 nM

Compound: O=C(O)CC[C@H](NC(=O)NC(CCCCNC(=O)c1ccc([211At])cc1)C(=O)O)C(=O)O (stereo partly drawn) [^211At-6, (2S)-2-(3-(1-carboxy-5-(4-^211At-astatobenzamido)pentyl)ureido)-pentanedioic acid]
Nephrotoxicity [2]: dose-limiting, irreversible nephrotoxicity

Compound: (((S)-1-Carboxy-4-(3-(4-iodophenyl)propanamido)pentyl)carbamoyl)-L-glutamic acid [RPS-022]
IC50 (PSMA on LNCaP cells): 10 nM
Kd (HSA): 22900 nM

Compound: (((S)-1-Carboxy-4-(4-(4-iodophenyl)butanamido)pentyl)carbamoyl)-L-glutamic acid [RPS-020]
IC50 (PSMA on LNCaP cells): 8 nM
Kd (HSA): 2100 nM

The next lines start with the values.

IC50 (PSMA on LNCaP cells): 40 nM
Kd (HSA): 26600 nM
Compound: O=C(O)CC[C@H](NC(=O)N[C@@H](CCCCNC(=O)CCc1ccc(I)cc1)C(=O)O)C(=O)O [RPS-026, (((S)-1-Carboxy-5-(3-(4-iodophenyl)propanamido)pentyl)carbamoyl)-L-glutamic acid]

IC50 (PSMA on LNCaP cells): 15 nM
Kd (HSA): < 1000 nM
Kd for HSA (HSA): could not be eluted from the column
Compound: O=C(O)CC[C@H](NC(=O)N[C@@H](CCC(=O)N[C@@H](CCCCNC(=O)CCCc1ccc(I)cc1)C(=O)O)C(=O)O)C(=O)O [RPS-025, (3S,7S,12S)-21-(4-iodophenyl)-5,10,18-trioxo-4,6,11,17-tetraazahenicosane-1,3,7,12-tetracarboxylic acid]

IC50 (PSMA on LNCaP cells): 4 nM
Kd (HSA): 980 nM
Compound: O=C(O)CC[C@H](NC(=O)N[C@@H](CCCCNC(=O)CCCc1ccc(I)cc1)C(=O)O)C(=O)O [RPS-005, (((S)-1-Carboxy-5-(4-(4-iodophenyl)butanamido)pentyl)carbamoyl)-L-glutamic acid]

Kd (HSA): 19200 nM
Compound: O=C(O)CC[C@H](NC(=O)N[C@@H](CCCCNC(=O)Nc1ccc(I)cc1)C(=O)O)C(=O)O [RPS-001, reference compound]

IC50 (PSMA on LNCaP cells): 15 nM
Kd (HSA): 11000 nM and 11200 nM
Compound: O=C(O)CC[C@H](NC(=O)N[C@@H](CCCCNC(=O)Cc1ccc(I)cc1)C(=O)O)C(=O)O [RPS-027, (((S)-1-Carboxy-5-(2-(4-iodophenyl)acetamido)pentyl)carbamoyl)-L-glutamic acid]
